Measurements from ChEMBL document CHEMBL4342471, “Discovery of Thieno[2,3-d]pyrimidine-Based Hydroxamic Acid Derivatives as Bromodomain-Containing Protein 4/Histone Deacetylase Dual Inhibitors Induce Autophagic Cell Death in Colorectal Carcinoma Cells” (J Med Chem, 2020).

How the values were obtained:
[1] = target: Bromodomain-containing protein 4 (Homo sapiens, UniProt O60885); assay: Inhibition of GST-tagged BRD4 bromodomain (unknown origin) using biotinylated histone H4KAc peptide (1 to 21 residues) as substrate by HTRF assay
HCT-116 = assay: Antiproliferative activity against human HCT116 cells assessed as reduction in cell viability measured after 24 to 48 hrs by MTT assay; format: functional, cell-based
Histone deacetylase 2 = Histone deacetylase 2 (Homo sapiens, UniProt Q92769)
[2] = target: T1, Protein deacetylase HDAC6 (Homo sapiens, UniProt Q9UBN7); assay: Inhibition of HDAC6 (unknown origin) using biotinylated histone H3 KAc peptide (1 to 21 residues) as substrate by HTRF assay
T1 sequence (Q9UBN7 whole entry): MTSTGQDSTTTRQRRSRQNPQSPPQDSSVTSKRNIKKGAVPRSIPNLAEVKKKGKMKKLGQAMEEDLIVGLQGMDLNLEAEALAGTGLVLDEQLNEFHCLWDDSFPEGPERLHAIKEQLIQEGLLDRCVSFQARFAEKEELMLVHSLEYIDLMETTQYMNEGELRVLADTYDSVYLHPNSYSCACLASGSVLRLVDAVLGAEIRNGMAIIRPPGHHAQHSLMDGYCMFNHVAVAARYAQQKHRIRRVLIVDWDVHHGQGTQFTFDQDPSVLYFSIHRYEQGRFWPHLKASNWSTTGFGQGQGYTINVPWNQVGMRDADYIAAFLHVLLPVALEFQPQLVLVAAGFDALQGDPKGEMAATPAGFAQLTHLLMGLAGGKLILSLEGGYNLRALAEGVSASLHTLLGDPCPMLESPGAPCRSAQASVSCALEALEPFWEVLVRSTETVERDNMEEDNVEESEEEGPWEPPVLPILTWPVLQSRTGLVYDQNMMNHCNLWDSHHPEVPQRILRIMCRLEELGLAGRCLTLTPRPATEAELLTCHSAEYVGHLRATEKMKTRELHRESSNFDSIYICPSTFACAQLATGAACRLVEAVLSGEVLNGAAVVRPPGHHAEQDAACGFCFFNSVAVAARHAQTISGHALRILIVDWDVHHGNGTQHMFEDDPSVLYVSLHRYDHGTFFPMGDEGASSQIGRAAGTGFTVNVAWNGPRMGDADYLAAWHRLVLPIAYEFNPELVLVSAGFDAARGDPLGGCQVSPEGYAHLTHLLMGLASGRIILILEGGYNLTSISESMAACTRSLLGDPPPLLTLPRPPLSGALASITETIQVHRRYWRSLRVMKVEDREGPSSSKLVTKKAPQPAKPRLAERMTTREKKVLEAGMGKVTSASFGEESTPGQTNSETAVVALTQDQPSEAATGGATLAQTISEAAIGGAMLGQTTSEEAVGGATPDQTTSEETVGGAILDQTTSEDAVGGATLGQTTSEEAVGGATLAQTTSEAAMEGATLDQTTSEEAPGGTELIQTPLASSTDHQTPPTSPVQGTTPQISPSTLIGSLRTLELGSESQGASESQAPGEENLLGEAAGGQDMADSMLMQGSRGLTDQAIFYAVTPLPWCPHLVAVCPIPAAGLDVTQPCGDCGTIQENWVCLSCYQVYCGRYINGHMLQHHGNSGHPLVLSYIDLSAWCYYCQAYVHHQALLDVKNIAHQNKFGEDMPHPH

DLD-1 = assay: Antiproliferative activity against human DLD1 cells assessed as reduction in cell viability measured after 24 to 48 hrs by MTT assay; format: functional, cell-based
Histone deacetylase 7 = target: T2, Histone deacetylase 7 (Homo sapiens, UniProt Q8WUI4); assay: Inhibition of HDAC7 (unknown origin) using biotinylated histone H3 KAc peptide (1 to 21 residues) as substrate by HTRF assay
T2 sequence (Q8WUI4 whole entry): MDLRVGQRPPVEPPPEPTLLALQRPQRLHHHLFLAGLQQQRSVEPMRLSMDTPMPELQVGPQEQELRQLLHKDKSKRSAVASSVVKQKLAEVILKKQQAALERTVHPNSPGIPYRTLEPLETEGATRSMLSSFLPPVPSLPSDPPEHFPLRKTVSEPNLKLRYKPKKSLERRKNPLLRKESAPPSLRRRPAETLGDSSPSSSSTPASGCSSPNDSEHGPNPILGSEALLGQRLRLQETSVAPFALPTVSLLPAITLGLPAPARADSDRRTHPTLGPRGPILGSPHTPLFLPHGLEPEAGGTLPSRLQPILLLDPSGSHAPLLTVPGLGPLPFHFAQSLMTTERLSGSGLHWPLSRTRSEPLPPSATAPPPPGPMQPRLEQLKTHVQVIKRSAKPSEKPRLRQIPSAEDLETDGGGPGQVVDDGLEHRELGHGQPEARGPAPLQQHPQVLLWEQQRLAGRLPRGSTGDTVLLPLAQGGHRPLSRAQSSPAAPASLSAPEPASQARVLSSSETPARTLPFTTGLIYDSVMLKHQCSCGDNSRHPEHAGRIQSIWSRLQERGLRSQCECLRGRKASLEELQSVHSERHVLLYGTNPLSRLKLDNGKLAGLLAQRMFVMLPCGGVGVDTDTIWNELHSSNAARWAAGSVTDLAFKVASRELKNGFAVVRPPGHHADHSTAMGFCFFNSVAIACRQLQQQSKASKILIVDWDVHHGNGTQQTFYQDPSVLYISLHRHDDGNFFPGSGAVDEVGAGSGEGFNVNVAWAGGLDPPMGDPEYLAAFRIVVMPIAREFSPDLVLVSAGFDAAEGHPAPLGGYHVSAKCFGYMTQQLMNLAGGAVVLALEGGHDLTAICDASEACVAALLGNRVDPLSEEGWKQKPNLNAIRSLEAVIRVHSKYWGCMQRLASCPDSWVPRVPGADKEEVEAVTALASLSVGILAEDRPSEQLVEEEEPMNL

SW-620 = assay: Antiproliferative activity against human SW620 cells assessed as reduction in cell viability measured after 24 to 48 hrs by MTT assay; format: functional, cell-based

Sequence of Histone deacetylase 2 (Q92769 whole entry, the tested form may be a part): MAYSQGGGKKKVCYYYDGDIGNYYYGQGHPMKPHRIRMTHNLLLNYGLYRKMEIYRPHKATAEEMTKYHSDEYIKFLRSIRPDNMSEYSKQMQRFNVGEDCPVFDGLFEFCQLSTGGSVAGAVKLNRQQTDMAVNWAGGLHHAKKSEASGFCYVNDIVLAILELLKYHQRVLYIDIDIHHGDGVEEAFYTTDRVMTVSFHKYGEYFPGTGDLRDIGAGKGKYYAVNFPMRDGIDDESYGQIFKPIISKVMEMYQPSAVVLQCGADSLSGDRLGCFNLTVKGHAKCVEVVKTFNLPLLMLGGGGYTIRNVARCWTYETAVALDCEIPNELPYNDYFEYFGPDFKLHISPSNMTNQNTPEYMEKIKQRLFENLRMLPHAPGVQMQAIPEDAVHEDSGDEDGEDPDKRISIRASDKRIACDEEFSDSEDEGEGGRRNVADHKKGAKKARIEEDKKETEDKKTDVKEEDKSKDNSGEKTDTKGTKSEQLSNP

Compound	IC50 [1] [µM]	IC50 (HCT-116) [µM]	IC50 (Histone deacetylase 2) [µM]	IC50 [2] [µM]	IC50 (DLD-1) [µM]	IC50 (Histone deacetylase 7) [µM]	IC50 (SW-620) [µM]
O=c1[nH]c(-c2ccc(O)cc2)nc2sc3c(c12)CCCC3	5.77	9.73					
Cc1cc(-c2nc3sc4c(c3c(=O)[nH]2)CCN(C)C4)cc(C)c1OCCCC(=O)NO	1.17	2.08	0.16	0.25	9.72	> 10	3.83
CN1CCc2c(sc3nc(-c4ccccc4)[nH]c(=O)c23)C1	> 10	> 10					
COC(=O)CN1CCc2c(sc3nc(-c4c(C)noc4C)[nH]c(=O)c23)C1	6.68	16.2					
Cc1cc(-c2nc3sc4c(c3c(=O)[nH]2)CCN(C)C4)cc(C)c1OCc1cccc(C(=O)NO)c1	1.93	5.49	0.251	0.78	9.16	> 10	7.83
Cc1noc(C)c1-c1nc2sc3c(c2c(=O)[nH]1)CCN(CCCC(=O)NO)C3	> 10	18	0.282	0.464	19.6	> 10	9.86
Cc1cc(C)cc(-c2nc3sc4c(c3c(=O)[nH]2)CCCC4)c1	> 10	> 10					
CCN1CCc2c(sc3nc(-c4ccc(O)cc4)[nH]c(=O)c23)C1	> 10	> 10					
CCN1CCc2c(sc3nc(-c4ccccc4)[nH]c(=O)c23)C1	> 10	> 10					
Oc1nc(-c2ccccc2)nc2sc3c(c12)CCCC3	> 10	> 10					
Cc1cc(C)cc(-c2nc3sc4c(c3c(=O)[nH]2)CCN(Cc2ccccc2)C4)c1	> 10	> 10					
COC(=O)CCCCCN1CCc2c(sc3nc(-c4c(C)noc4C)[nH]c(=O)c23)C1	3.62	17					
CCN1CCc2c(sc3nc(-c4cc(C)cc(C)c4)[nH]c(=O)c23)C1	> 10	> 10					
Cc1cc(-c2nc3sc4c(c3c(=O)[nH]2)CCN(C)C4)cc(C)c1OCc1ccc(/C=C/C(=O)NO)cc1	1.19	0.92	0.097	0.202	3.67	> 10	2.34
O=c1[nH]c(-c2ccc(O)cc2)nc2sc3c(c12)CCC3	9.28	> 10					
Cc1cc(-c2nc3sc4c(c3c(=O)[nH]2)CCN(C)C4)cc(C)c1OCc1ccc(C(=O)Nc2ccccc2N)cc1	2.55	4.32	0.14	> 10	> 10	> 10	5.49

Compound	IC50 [1] [µM]	IC50 (HCT-116) [µM]	IC50 (Histone deacetylase 2) [µM]	IC50 [2] [µM]	IC50 (DLD-1) [µM]	IC50 (Histone deacetylase 7) [µM]	IC50 (SW-620) [µM]
Cc1cc(-c2nc3sc4c(c3c(=O)[nH]2)CCC4)cc(C)c1O	2.64	4.85					
O=c1[nH]c(-c2ccccc2)nc2sc3c(c12)CCN(Cc1ccccc1)C3	> 10	> 10					
Cc1cc(-c2nc3sc4c(c3c(=O)[nH]2)CCN(Cc2ccccc2)C4)cc(C)c1O	> 10	> 10					
Cc1cc(-c2nc3sc4c(c3c(=O)[nH]2)CCN(CCCCCC(=O)NO)C4)cc(C)c1O	> 10	> 10	0.136	0.129	> 10	> 10	15.8
Cc1cc(-c2nc3sc4c(c3c(=O)[nH]2)CCCC4)cc(C)c1O	1.81	5.41					
COC(=O)CCCN1CCc2c(sc3nc(-c4c(C)noc4C)[nH]c(=O)c23)C1	5.93	12.7					
O=c1[nH]c(-c2ccc(O)cc2)nc2sc3c(c12)CCN(Cc1ccccc1)C3	> 10	> 10					
Cc1cc(C)cc(-c2nc3sc4c(c3c(=O)[nH]2)CCC4)c1	> 10	> 10					
Cc1cc(-c2nc3sc4c(c3c(=O)[nH]2)CCN(C)C4)cc(C)c1OCCCCCC(=O)Nc1ccccc1N	2.19	6.93	0.17	> 10	> 10	> 10	9.87
Cc1cc(-c2nc3sc4c(c3c(=O)[nH]2)CCN(C)C4)cc(C)c1OCCOCc1ccc(/C=C/C(=O)NO)cc1	0.98	0.69	0.085	0.159	3.04	> 10	3.85
Cc1noc(C)c1-c1nc2sc3c(c2c(=O)[nH]1)CCN(C)C3	2.41	9.77					
CCN1CCc2c(sc3nc(-c4cc(C)c(O)c(C)c4)[nH]c(=O)c23)C1	5.6	8.91					
Cc1cc(C)cc(-c2nc3sc4c(c3c(=O)[nH]2)CCN(C)C4)c1	> 10	> 10					
O=c1[nH]c(-c2ccccc2)nc2sc3c(c12)CCC3	> 10	> 10					
CN1CCc2c(sc3nc(-c4ccc(O)cc4)[nH]c(=O)c23)C1	6.31	8.68					
